# Measurements: patent US20250345318A1, “COMPOUND AND USE THEREOF IN PREVENTING OR TREATING RADIATION DAMAGE” (SIMCERE PHARMACEUTICAL CO., LTD., priority 2022, published 2025)
# Experiments:
# IEC-6 cells [1] = assay: Early apoptosis by Annexin V-PI staining in irradiated IEC-6 cells (Example 13); assay type: cell-based; conditions: 1 μM JAC4 24 h + 12 Gy X-ray, 24 h after
# Protocol: The apoptosis of IEC-6 cells was determined by Annexin V-PI staining and the early apoptosis rates of IEC-6 cells after different treatments were summarized (***p<0.001). The procedures for the detection by Annexin V-PI staining are as follows: IEC-6 cells were seeded in a 6-well plate at 2×10^5 cells/well. After adhesion, the cells were treated with 1 μM JAC4 or DMSO for 24 h and subjected to 12 Gy of X-ray radiation. After 24 h, the cells were harvested in PBS and analyzed using the Annexin V apoptosis detection kit (BD, FACS AriaIII, USA) on a flow cytometer.
# IEC-6 cells [2] = assay: Colocalization of cytochrome C and mitochondria in irradiated IEC-6 cells (Example 13); assay type: cell-based; conditions: 1 μM JAC4 24 h pretreatment + 12 Gy, 24 h after
# Protocol: The effect was explored in a small intestinal epithelial IEC-6 cell in-vitro radiation model.
# Formulation of JAC4 (1 μM or 10 μM): 5 mg of JAC4 was added to 1527 μL of DMSO to prepare a 10 mM stock solution, which was then serially diluted into 2 mM and 200 μM stock solutions.
# 10 μL of 200 μM stock solution was added into 90 μL of complete culture medium. The 100-μL mixture was uniformly mixed before 900 μL of complete culture medium was added, and uniformly mixed again before 1 mL of complete culture medium was added. The mixture was again uniformly mixed and then added into a six-well plate to give 1 μM JAC4.
# Control wells: 10 μL of DMSO was added into 90 μL of complete culture medium. The 100-μL mixture was uniformly mixed before 900 μL of complete culture medium was added, and uniformly mixed again before 1 mL of complete culture medium was added. The mixture was again uniformly mixed and then added into a six-well plate.
# IEC-6 cells were pretreated for 24 h with 1 μM JAC4 or DMSO and subjected to radiation (12 Gy) treatment. After 24 h, colocalized cell immunofluorescent images of mitochondrial cytochrome C staining and mitochondria staining were acquired and subjected to fluorescent colocalization analysis using the Image J software to give colocalization correlation coefficients (***p<0.001) of cytochrome C and mitochondria in IEC-6 cells after different treatments.
# [3] = test system: SPCA-1 cells transfected with JWA-knockdown plasmids; assay: Colony formation of SPCA-1 cells transfected with JWA-knockdown plasmids (Example 22); assay type: cell-based, human; conditions: JAC4-treated JWA-knockdown SPCA-1 vs JAC4-treated si-Control
# Protocol: 1. SPCA-1 and BEAS-2B cells (or SPCA-1 and BEAS-2B cells transfected with JWA-knockdown plasmids) in the exponential growth phase were plated in 6-well plates at a specific amount. The number of plated cells is as follows
# 2. After the cells adhered to the container wall, the cells were treated (or not treated) with […] JAC4 and treated with X-ray of 0, 2, 4, or 6 Gy. The medium was replaced with a fresh medium containing JAC4 at the corresponding concentration once every 2 days (or the cells were treated with X-ray of 0, 2, 4, or 6 Gy after adhesion, and the medium was replaced with a fresh medium once every 2 days).
# 3. After the cells were cultured for 10-14 days, colonies were visually observed. The culture medium was discarded, and the cells were fixed with methanol for 10-20 min, stained with crystal violet for 10 min, slowly washed with flowing clear water thrice, photographed, and counted for colonies containing>50 cells.
# 4. The colony forming efficiency (CFE)=(number of colonies formed/number of seeded cells) 100% was calculated, and the cell survival fraction (SF)=(colony forming efficiency of treatment group/colony forming efficiency of 0 Gy group)×100% was calculated from the colony forming efficiency. […]
# C57BL/6 male mice = assay: Small intestine epithelial injury after abdominal X-ray irradiation 12 Gy (Example 10); assay type: in vivo; conditions: for small intestine crypt height / small intestine histopathological score: JAC4 100 mg/kg; for small intestine villus length: JAC4 100 mg/kg oral 7 days
# Protocol: C57BL/6 male mice (24.7±0.9 g in body weight) aged 10 weeks were divided into 3 groups: a vehicle control group (n=6), a vehicle+radiation group (n=12), and a JAC4+radiation group (n=12). JAC4 (100 mg/kg) or an equal volume of vehicle (polyethylene glycol:ethanol:physiological saline=47.5:7.5:50, v/v/v) was orally administered to the mice once daily for 7 consecutive days. After that, the mice in the radiation groups were subjected to abdominal X-ray irradiation (12 Gy). The mice in the vehicle control group (n=6), the vehicle+radiation group (n=6), and the JAC4+radiation group (n=6) were sacrificed at 6 h, and blood samples and small intestine tissues were collected. The remaining mice in the vehicle+radiation group (n=6) and the JAC4+radiation group (n=6) were sacrificed after day 8, and blood samples and small intestine tissues were collected. In the process, abdominal irradiation was given while sparing the femoral region to minimize damage to the hematopoietic system. After the abdominal irradiation, HE staining was performed on the small intestines of mice in all groups, and the small intestine villus lengths, histopathological scores of the small intestine tissue sections, and the crypt heights were measured in all groups (* p<0.05, *** p<0.001).
# SPCA-1 cells = assay: Apoptosis (Hoechst 33342) and mitochondrial membrane potential (JC-1), SPCA-1 (Example 22); assay type: cell-based, human
# Protocol: Severe DSBs may cause apoptosis. SPCA-1 and BEAS-2B cells were plated and cultured for 24 h before they were treated with 10 μM JAC4 for 24 h and 4 Gy X-ray for 24 h. The cells were stained with Hoechst 33342 (see Hoechst staining for apoptosis detection in Example 13) to evaluate the effect of JAC4 in combination with radiation on apoptosis. […] The decrease in mitochondrial membrane potential (JC-1) is a marker event in the early stage of apoptosis. The mitochondrial membrane potential was measured using fluorescent probe JC-1. The red fluorescence indicates a high mitochondrial membrane potential leading to JC-1 aggregate formation, and the green fluorescence indicates the mitochondrial membrane potential depolarization. The fluorescence ratio of red to green reflects the mitochondrial membrane potential and the number of early apoptotic cells.
# BEAS-2B cells = assay: γ-H2AX foci and Western blot (DSBs), BEAS-2B (Example 22); assay type: cell-based, human
# Protocol: To investigate the effect of JAC4 in combination with X-ray on DSBs in SPCA-1 and BEAS-2B cells, SPCA-1 and BEAS-2B cells were pretreated with 10 μM JAC4 for 24 h and 4 Gy X-ray for 2 h, and then subjected to γ-H2AX fluorescent labeling and Western immunoblot (see Example 4 for detailed procedures).
# [4] = 6 h after abdominal X-ray 12 Gy
# [5] = day 8 after abdominal X-ray 12 Gy
compound,measurement,setting,value
c1ccc(CSc2nnc(C3COc4ccccc4O3)o2)nc1 (stereo not drawn) [JAC4],early apoptosis rate (Annexin V-PI),IEC-6 cells [1],5.74±0.80%
same,fluorescent colocalization correlation coefficient of the mitochondria and cytochrome C,IEC-6 cells [2],0.73±0.02
same,cell survival rate (radiosensitization curve),[3],significantly increased
same,number of colonies formed,[3],significantly higher
same,small intestine crypt height,C57BL/6 male mice; [4],49.80±4.06 μm
same,small intestine histopathological score,C57BL/6 male mice; [4],3.17±0.41
same,small intestine villus length,C57BL/6 male mice; [4],308.25±25.65 μm
same,small intestine crypt height,C57BL/6 male mice; [5],53.76±3.33 μm
same,small intestine histopathological score,C57BL/6 male mice; [5],2.83±0.41
same,small intestine villus length,C57BL/6 male mice; [5],300.38±33.27 μm
same,apoptosis (Hoechst 33342),"SPCA-1 cells; SPCA-1, 10 μM JAC4 24 h + 4 Gy X-ray 24 h",increased the pro-apoptotic effect of X-ray
same,mitochondrial membrane potential (JC-1),"SPCA-1 cells; SPCA-1, JAC4 in combination with X-ray",aggravated the decrease in mitochondrial membrane potential
same,formation of γ-H2AX foci,BEAS-2B cells; 10 μM JAC4 24 h + 4 Gy X-ray 2 h vs X-ray treatment group,significantly reduced
same,JWA expression level (Western blot),BEAS-2B cells; 10 μM JAC4 + 4 Gy X-ray,increased
same,γ-H2AX protein expression level (Western blot),BEAS-2B cells; 10 μM JAC4 + 4 Gy X-ray,decreased
